Tests used:
[1] = system: HeLa; experiment: MTS proliferation assay; format: cell-based, human; conditions: 72 h
How it was run: (§1)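 Cells exposed 72 h under culture conditions to compound at 10, 3, 1 and 0.3 μM final, added in medium with max 5% DMSO. MTS reagent then added for a further 3 h and absorbance read at 492 nm.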

[2] = system: Jurkat; experiment: MTS proliferation assay; format: cell-based, human; conditions: 72 h
How it was run: as §1

[3] = system: MRC5; experiment: MTS proliferation assay; format: cell-based; conditions: MRC5, 72 h
How it was run: as §1

[4] = Hoechst 33342 nuclear staining; format: cell-based; conditions: for Hoechst 33342 nuclear staining score, H460: H460 cells; for Hoechst 33342 nuclear staining score, HeLa: HeLa cells; for Hoechst 33342 nuclear staining score, Jily: Jily cells; for Hoechst 33342 nuclear staining score, Jurkat: Jurkat cells; for Hoechst 33342 nuclear staining score, MRC5: MRC5 cells; on Hoechst 33342 nuclear staining score, PBLs: key: 0: no activity; 1: weak activity comprising less than 50% of the cells; 2: strong activity comprising more than 50% of the cells;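 on all read-outs here: apoptotic nuclei scored 0 none 1 weak under 50% of cells 2 strong over 50% of cells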
How it was run: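 Cells were plated in 96 well tissue culture plates in 80 μl complete medium, with 3-5*10^3 cells per well for adherent lines and 8-10*10^3 for suspension lines. Adherent cells spread for 24 h before treatment, while suspension cells were treated right after seeding. Compounds were added in 20 μl complete medium containing max 5% DMSO.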

[5] = conc 0.3 (final concentrations in μM), 24 h or 48 h incubation
[6] = conc 1 (final concentrations in μM), 24 h or 48 h incubation
[7] = conc 3 (final concentrations in μM), 24 h or 48 h incubation
[8] = conc 10 (final concentrations in μM), 24 h or 48 h incubation
[9] = conc 0.1 (final concentrations in μM), 24 h or 48 h incubation

IC50 [1] [nM] | IC50 [2] [nM] | SMILES | IC50 [3] [nM] | Hoechst 33342 nuclear staining score, H460 ([4]; conc 0.1) | Hoechst 33342 nuclear staining score, H460 ([4]; conc 0.3) | Hoechst 33342 nuclear staining score, H460 ([4]; conc 1) | Hoechst 33342 nuclear staining score, H460 ([4]; conc 3) | Hoechst 33342 nuclear staining score, HeLa ([4]; conc 0.1) | Hoechst 33342 nuclear staining score, HeLa ([4]; conc 0.3) | Hoechst 33342 nuclear staining score, HeLa ([4]; conc 1) | Hoechst 33342 nuclear staining score, HeLa ([4]; conc 3) | Hoechst 33342 nuclear staining score, Jily ([4]; conc 0.1) | Hoechst 33342 nuclear staining score, HeLa [4, 5] | Hoechst 33342 nuclear staining score, HeLa [4, 6] | Hoechst 33342 nuclear staining score, HeLa [4, 7] | Hoechst 33342 nuclear staining score, Jurkat [4, 5] | Hoechst 33342 nuclear staining score, Jurkat [4, 6] | Hoechst 33342 nuclear staining score, Jurkat [4, 7] | Hoechst 33342 nuclear staining score, HeLa [4, 9] | Hoechst 33342 nuclear staining score, Jurkat [4, 9] | other results
> 1000 | < 1000 | COc1cc(-c2cc(CNc3ccc4[nH]nnc4c3)cn2S(=O)(=O)c2ccc(C)cc2)cc(OC)c1OC [Example 69] | > 1000 | 0 | 0 | 0 | 2 (strong activity comprising more than 50% of the cells) | 0 | 0 | 0 | 2 (strong activity comprising more than 50% of the cells) | 0 | – | – | – | – | – | – | – | – | Hoechst 33342 nuclear staining score, Jily ([4]; conc 0.3): 0; Hoechst 33342 nuclear staining score, Jily ([4]; conc 1): 1 (weak activity comprising less than 50% of the cells); Hoechst 33342 nuclear staining score, Jily ([4]; conc 3): 2 (strong activity comprising more than 50% of the cells); Hoechst 33342 nuclear staining score, Jurkat ([4]; conc 0.1): 0; Hoechst 33342 nuclear staining score, Jurkat ([4]; conc 0.3): 0; Hoechst 33342 nuclear staining score, Jurkat ([4]; conc 1): 2 (strong activity comprising more than 50% of the cells); Hoechst 33342 nuclear staining score, Jurkat ([4]; conc 3): 2 (strong activity comprising more than 50% of the cells); Hoechst 33342 nuclear staining score, MRC5 ([4]; conc 0.1): 0; Hoechst 33342 nuclear staining score, MRC5 ([4]; conc 0.3): 0; Hoechst 33342 nuclear staining score, MRC5 ([4]; conc 1): 0; Hoechst 33342 nuclear staining score, MRC5 ([4]; conc 3): 2 (strong activity comprising more than 50% of the cells); Hoechst 33342 nuclear staining score, PBLs ([4]; conc 0.1): 0; Hoechst 33342 nuclear staining score, PBLs ([4]; conc 0.3): 0; Hoechst 33342 nuclear staining score, PBLs ([4]; conc 1): 0; Hoechst 33342 nuclear staining score, PBLs ([4]; conc 3): 0
> 1000 | > 1000 | Cc1ccc(S(=O)(=O)n2cc(-c3cncnc3)cc2-c2ccc3c(c2)OCO3)cc1 [Example 46] | > 1000 | – | – | – | – | – | – | – | – | – | 0 | 0 | 0 | 0 | 0 | 0 | – | – | Hoechst 33342 nuclear staining score, HeLa [4, 8]: 0; Hoechst 33342 nuclear staining score, Jurkat [4, 8]: 0
< 1000 | < 1000 | COc1cc(-c2cc(CNc3ccc(-n4cncn4)cc3)cn2S(=O)(=O)c2ccc(C)cc2)cc(OC)c1OC [Example 68] | > 1000 | 0 | 0 | 2 (strong activity comprising more than 50% of the cells) | 2 (strong activity comprising more than 50% of the cells) | 0 | 0 | 0 | 2 (strong activity comprising more than 50% of the cells) | 0 | – | – | – | – | – | – | – | – | Hoechst 33342 nuclear staining score, Jily ([4]; conc 0.3): 0; Hoechst 33342 nuclear staining score, Jily ([4]; conc 1): 2 (strong activity comprising more than 50% of the cells); Hoechst 33342 nuclear staining score, Jily ([4]; conc 3): 2 (strong activity comprising more than 50% of the cells); Hoechst 33342 nuclear staining score, Jurkat ([4]; conc 0.1): 0; Hoechst 33342 nuclear staining score, Jurkat ([4]; conc 0.3): 0; Hoechst 33342 nuclear staining score, Jurkat ([4]; conc 1): 2 (strong activity comprising more than 50% of the cells); Hoechst 33342 nuclear staining score, Jurkat ([4]; conc 3): 2 (strong activity comprising more than 50% of the cells); Hoechst 33342 nuclear staining score, MRC5 ([4]; conc 0.1): 0; Hoechst 33342 nuclear staining score, MRC5 ([4]; conc 0.3): 0; Hoechst 33342 nuclear staining score, MRC5 ([4]; conc 1): 0; Hoechst 33342 nuclear staining score, MRC5 ([4]; conc 3): 2 (strong activity comprising more than 50% of the cells); Hoechst 33342 nuclear staining score, PBLs ([4]; conc 0.1): 0; Hoechst 33342 nuclear staining score, PBLs ([4]; conc 0.3): 0; Hoechst 33342 nuclear staining score, PBLs ([4]; conc 1): 0; Hoechst 33342 nuclear staining score, PBLs ([4]; conc 3): 0
> 1000 | < 1000 | Cc1ccc(S(=O)(=O)n2cc(-c3cncc(C(N)=O)c3)cc2-c2ccc3c(c2)OCO3)cc1 [Example 50] | > 1000 | – | – | – | – | – | – | – | – | – | 0 | 0 | 2 (strong activity comprising more than 50% of the cells) | 0 | 0 | 2 (strong activity comprising more than 50% of the cells) | 0 | 0 | –
> 1000 | > 1000 | COc1cc(-c2cc(-c3cncc(C(=O)NCCC4CCCN4C)c3)cn2S(=O)(=O)c2ccc(C)cc2)cc(OC)c1OC.Cl (stereo not drawn) [Example 62] | > 1000 | 0 | 0 | 0 | 0 | 0 | 0 | 0 | 0 | 0 | – | – | – | – | – | – | – | – | Hoechst 33342 nuclear staining score, Jily ([4]; conc 0.3): 0; Hoechst 33342 nuclear staining score, Jily ([4]; conc 1): 0; Hoechst 33342 nuclear staining score, Jily ([4]; conc 3): 0; Hoechst 33342 nuclear staining score, Jurkat ([4]; conc 0.1): 0; Hoechst 33342 nuclear staining score, Jurkat ([4]; conc 0.3): 0; Hoechst 33342 nuclear staining score, Jurkat ([4]; conc 1): 0; Hoechst 33342 nuclear staining score, Jurkat ([4]; conc 3): 2 (strong activity comprising more than 50% of the cells); Hoechst 33342 nuclear staining score, MRC5 ([4]; conc 0.1): 0; Hoechst 33342 nuclear staining score, MRC5 ([4]; conc 0.3): 0; Hoechst 33342 nuclear staining score, MRC5 ([4]; conc 1): 0; Hoechst 33342 nuclear staining score, MRC5 ([4]; conc 3): 0; Hoechst 33342 nuclear staining score, PBLs ([4]; conc 0.1): 0; Hoechst 33342 nuclear staining score, PBLs ([4]; conc 0.3): 0; Hoechst 33342 nuclear staining score, PBLs ([4]; conc 1): 0; Hoechst 33342 nuclear staining score, PBLs ([4]; conc 3): 0
> 1000 | > 1000 | Cc1ccc(S(=O)(=O)n2cc(CN(C)CCN(C)C)cc2-c2ccc3c(c2)OCO3)cc1 [Example 31] | > 1000 | – | – | – | – | – | – | – | – | – | 0 | 0 | 0 | 0 | 0 | 0 | 0 | 0 | –

SMILES | IC50 [1] [nM] | IC50 [2] [nM] | IC50 [3] [nM] | Hoechst 33342 nuclear staining score, H460 ([4]; conc 0.1) | Hoechst 33342 nuclear staining score, H460 ([4]; conc 0.3) | Hoechst 33342 nuclear staining score, H460 ([4]; conc 1) | Hoechst 33342 nuclear staining score, H460 ([4]; conc 3) | Hoechst 33342 nuclear staining score, HeLa ([4]; conc 0.1) | Hoechst 33342 nuclear staining score, HeLa ([4]; conc 0.3) | Hoechst 33342 nuclear staining score, HeLa ([4]; conc 1) | Hoechst 33342 nuclear staining score, HeLa ([4]; conc 3) | Hoechst 33342 nuclear staining score, Jily ([4]; conc 0.1) | Hoechst 33342 nuclear staining score, HeLa [4, 5] | Hoechst 33342 nuclear staining score, HeLa [4, 6] | Hoechst 33342 nuclear staining score, HeLa [4, 7] | Hoechst 33342 nuclear staining score, Jurkat [4, 5] | Hoechst 33342 nuclear staining score, Jurkat [4, 6] | Hoechst 33342 nuclear staining score, Jurkat [4, 7] | Hoechst 33342 nuclear staining score, HeLa [4, 9] | Hoechst 33342 nuclear staining score, Jurkat [4, 9] | other results
CCCCOc1ccc(S(=O)(=O)n2cc(-c3cccnc3)cc2-c2cc(OC)c(OC)c(OC)c2)cc1 [Example 78] | > 1000 | > 1000 | > 1000 | 0 | 0 | 0 | 0 | 0 | 0 | 0 | 0 | 0 | – | – | – | – | – | – | – | – | Hoechst 33342 nuclear staining score, Jily ([4]; conc 0.3): 0; Hoechst 33342 nuclear staining score, Jily ([4]; conc 1): 0; Hoechst 33342 nuclear staining score, Jily ([4]; conc 3): 0; Hoechst 33342 nuclear staining score, Jurkat ([4]; conc 0.1): 0; Hoechst 33342 nuclear staining score, Jurkat ([4]; conc 0.3): 0; Hoechst 33342 nuclear staining score, Jurkat ([4]; conc 1): 0; Hoechst 33342 nuclear staining score, Jurkat ([4]; conc 3): 0; Hoechst 33342 nuclear staining score, MRC5 ([4]; conc 0.1): 0; Hoechst 33342 nuclear staining score, MRC5 ([4]; conc 0.3): 0; Hoechst 33342 nuclear staining score, MRC5 ([4]; conc 1): 0; Hoechst 33342 nuclear staining score, MRC5 ([4]; conc 3): 0; Hoechst 33342 nuclear staining score, PBLs ([4]; conc 0.1): 0; Hoechst 33342 nuclear staining score, PBLs ([4]; conc 0.3): 0; Hoechst 33342 nuclear staining score, PBLs ([4]; conc 1): 0; Hoechst 33342 nuclear staining score, PBLs ([4]; conc 3): 0
CCN1CCCC1CNCc1cc(-c2ccc3c(c2)OCO3)n(S(=O)(=O)c2ccc(C)cc2)c1 (stereo not drawn) [Example 21] | > 1000 | > 1000 | > 1000 | – | – | – | – | – | – | – | – | – | 0 | 0 | 0 | 0 | 0 | 0 | 0 | 0 | –
Cc1ccc(S(=O)(=O)n2cc(-c3cccnc3)cc2-c2ccc3c(c2)OCO3)cc1 [Example 49] | > 1000 | > 1000 | > 1000 | – | – | – | – | – | – | – | – | – | 0 | 0 | 0 | 0 | 0 | 0 | 0 | 0 | –
Cc1ccc(S(=O)(=O)n2cc(CN(C)C3CCN(Cc4ccccc4)C3)cc2-c2ccc3c(c2)OCO3)cc1 (stereo not drawn) [Example 25] | > 1000 | > 1000 | > 1000 | – | – | – | – | – | – | – | – | – | 0 | 0 | 1 (weak activity comprising less than 50% of the cells) | 0 | 0 | 0 | 0 | 0 | –
